The values that follow come from patent US20260053834A1, “COVALENT MODIFIERS OF AKT1 AND USES THEREOF” (Terremoto Biosciences, Inc., priority 2023, published 2026).

Each structure is given as a SMILES string. Where only a bound is given, the exact number is not on record here.

The target in one test is T1, AKT2 (Homo sapiens, UniProt P31751).
T1 construct: expressed in transfected cells; host or cells: HEK293
The experiment in a line: Live cell target engagement by NanoBRET competitive probe displacement, AKT2. The format is binding. The following applies: transfected HEK293 cells, 2 h at 37° C., read-out: AKT2 IC50: GeoMean IC50.

In a further test the target is T2, AKT1 WT (Homo sapiens, UniProt P31749).
T2 construct: expressed in transfected cells; host or cells: HEK293
T2 sequence (P31749 whole entry): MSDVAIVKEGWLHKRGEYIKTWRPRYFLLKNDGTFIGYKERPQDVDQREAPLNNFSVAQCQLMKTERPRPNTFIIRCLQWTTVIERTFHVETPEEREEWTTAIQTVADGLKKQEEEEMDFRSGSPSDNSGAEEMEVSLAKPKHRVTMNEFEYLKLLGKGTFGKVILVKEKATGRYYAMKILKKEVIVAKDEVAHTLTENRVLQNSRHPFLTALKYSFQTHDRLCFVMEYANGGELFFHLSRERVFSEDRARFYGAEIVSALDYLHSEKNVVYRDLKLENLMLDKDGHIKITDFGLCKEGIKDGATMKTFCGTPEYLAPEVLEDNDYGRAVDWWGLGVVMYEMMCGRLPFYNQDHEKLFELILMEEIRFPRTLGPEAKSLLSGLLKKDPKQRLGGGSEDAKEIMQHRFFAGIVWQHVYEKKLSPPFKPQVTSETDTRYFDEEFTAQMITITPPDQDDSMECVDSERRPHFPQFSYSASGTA
The experiment in a line: Live cell target engagement by NanoBRET competitive probe displacement, AKT1 WT. The note with it: transfected HEK293 cells, 2 h at 37° C., read-out: AKT1 WT IC50: GeoMean IC50. The format is binding.

The target in a further test is T3, AKT1 E17K (Homo sapiens, UniProt P31749, E17K).
T3 construct: expressed in transfected cells; host or cells: HEK293
T3 sequence (P31749 whole entry E17K): as the sequence (P31749 whole entry) above, with E17K counted along it
The experiment in a line: Live cell target engagement by NanoBRET competitive probe displacement, AKT1 E17K. The note with it: transfected HEK293 cells, 2 h at 37° C., read-out: AKT1 E17K IC50: GeoMean IC50. The format is binding.

The test system of test [1] is LAPC4 prostate cancer cells, which express the AKT1 E17K allele. The experiment in a line: Antiproliferative effects in LAPC4 cells (CellTiter Glo, 72 h). Type of test: cell-based. The note with it: Homo sapiens, LAPC4, 72 h, read-out: LAPC4 proliferation IC50: GeoMean IC50. An outline of the steps:
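IC50 values come from Hill-equation fitting of luminescence (cellular ATP) after 72 h compound exposure. Treated wells held 1,000 cells each, with compound delivered as DMSO dilutions. Culture medium was IMDM plus 12% FBS.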

T1 sequence (P31751 whole entry): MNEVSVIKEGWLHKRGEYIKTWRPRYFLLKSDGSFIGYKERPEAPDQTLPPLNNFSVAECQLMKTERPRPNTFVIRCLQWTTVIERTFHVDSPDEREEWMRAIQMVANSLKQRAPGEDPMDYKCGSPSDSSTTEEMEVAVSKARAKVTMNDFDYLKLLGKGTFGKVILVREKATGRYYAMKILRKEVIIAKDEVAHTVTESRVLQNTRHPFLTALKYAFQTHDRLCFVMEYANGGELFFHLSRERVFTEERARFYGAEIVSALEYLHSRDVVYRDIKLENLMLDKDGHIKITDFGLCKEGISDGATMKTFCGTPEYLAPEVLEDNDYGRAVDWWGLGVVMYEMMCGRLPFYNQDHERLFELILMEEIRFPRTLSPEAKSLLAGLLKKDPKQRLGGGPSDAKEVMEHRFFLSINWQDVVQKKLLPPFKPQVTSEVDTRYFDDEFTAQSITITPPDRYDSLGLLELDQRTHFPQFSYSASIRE

Regarding `Nc1ncccc1-c1nc2ccc(-n3cc4c(n3)CNC4)nc2n1-c1ccc2c(c1)CC[C@@H]2NC(=O)c1ccc(O)c(C=O)c1` [Example 160, N-[(1S)-5-[2-(2-aminopyridin-3-yl)-5-{4H,5H,6H-pyrrolo[3,4-c]pyrazol-2-yl}imidazo[4,5-b]pyridin-3-yl]-2,3-dihydro-1H-inden-1-yl]-3-formyl-4-hydroxybenzamide], the IC50 on AKT2 was 100 to 2000 nM; on AKT1 WT it was 100 to 2000 nM; at AKT1 E17K, 100 to 2000 nM; in test [1], no less than 2000 nM.
In the case of `Nc1ncccc1-c1nc2ccc(-c3ccccc3)nc2n1-c1ccc2c(c1)CC[C@@H]2NC(=O)c1ccc(B(O)O)c(C=O)c1` [Example 161, (S)-(4-((5-(2-(2-aminopyridin-3-yl)-5-phenyl-3H-imidazo[4,5-b]pyridin-3-yl)-2,3-dihydro-1H-inden-1-yl)carbamoyl)-2-formylphenyl)boronic acid], the IC50 on AKT2 was 100 to 2000 nM; on AKT1 WT it was 10 to 100 nM; at AKT1 E17K it was 10 to 100 nM; in test [1] it was 100 to 2000 nM.
On to `Nc1ncccc1-c1nc2ccc(-c3ccccc3)nc2n1-c1ccc2c(c1)CC[C@@H]2NC(=O)c1cc(C=O)c2[nH]cnc2c1` [Example 162, N-[(1S)-5-[2-(2-aminopyridin-3-yl)-5-phenylimidazo[4,5-b]pyridin-3-yl]-2,3-dihydro-1H-inden-1-yl]-7-formyl-1H-1,3-benzodiazole-5-carboxamide], for which the IC50 at AKT2 was less than 10 nM; on AKT1 WT, less than 10 nM; on AKT1 E17K it was less than 10 nM; in test [1], 10 to 100 nM.
Turning to `Nc1ncc(F)cc1-c1nc2ccc(-n3cccn3)nc2n1-c1ccc2c(c1)CC[C@@H]2NC(=O)c1ccc(O)c(C=O)c1` [Example 163, (S)—N-(5-(2-(2-amino-5-fluoropyridin-3-yl)-5-(1H-pyrazol-1-yl)-3H-imidazo[4,5-b]pyridin-3-yl)-2,3-dihydro-1H-inden-1-yl)-3-formyl-4-hydroxybenzamide], the IC50 at AKT2 is no less than 2000 nM; on AKT1 WT it was 10 to 100 nM; on AKT1 E17K it was 10 to 100 nM; in test [1] it was no less than 2000 nM.
Turning to `CN1CC(n2ccc(-c3ccc4nc(-c5cccnc5N)n(-c5ccc6c(c5)CC[C@@H]6NC(=O)c5ccc(O)c(C=O)c5)c4n3)n2)C1` [Example 165, (S)—N-(5-(2-(2-aminopyridin-3-yl)-5-(1-(1-methylazetidin-3-yl)-1H-pyrazol-3-yl)-3H-imidazo[4,5-b]pyridin-3-yl)-2,3-dihydro-1H-inden-1-yl)-3-formyl-4-hydroxybenzamide], the IC50 on AKT2 was 100 to 2000 nM; on AKT1 WT, 10 to 100 nM; at AKT1 E17K, 10 to 100 nM; in test [1], 100 to 2000 nM.
Consider `Cc1ccc(-c2nc3ccc(-n4cccn4)nc3n2-c2ccc3c(c2)CC[C@@H]3NC(=O)c2ccc(O)c(C=O)c2)c(N)n1` [Example 166, (S)—N-(5-(2-(2-amino-6-methylpyridin-3-yl)-5-(1H-pyrazol-1-yl)-3H-imidazo[4,5-b]pyridin-3-yl)-2,3-dihydro-1H-inden-1-yl)-3-formyl-4-hydroxybenzamide], for which the IC50 (at AKT2; at AKT1 WT; at AKT1 E17K; in test [1]) was no less than 2000 nM throughout.
For the compound `Cc1cnc(N)c(-c2nc3ccc(-n4cccn4)nc3n2-c2ccc3c(c2)CC[C@@H]3NC(=O)c2ccc(O)c(C=O)c2)c1` [Example 167, (S)—N-(5-(2-(2-amino-5-methylpyridin-3-yl)-5-(1H-pyrazol-1-yl)-3H-imidazo[4,5-b]pyridin-3-yl)-2,3-dihydro-1H-inden-1-yl)-3-formyl-4-hydroxybenzamide], the IC50 at AKT2 is 100 to 2000 nM; on AKT1 WT it was 100 to 2000 nM; at AKT1 E17K it was 100 to 2000 nM; in test [1] it was no less than 2000 nM.
On to `Nc1ncccc1-c1nc2ccc(-n3cccn3)nc2n1-c1ccc2c(c1)CC[C@@H]2NC(=O)c1cc(C=O)c(O)c(OC(F)F)c1` [Example 168, (S)—N-(5-(2-(2-aminopyridin-3-yl)-5-(1H-pyrazol-1-yl)-3H-imidazo[4,5-b]pyridin-3-yl)-2,3-dihydro-1H-inden-1-yl)-3-(difluoromethoxy)-5-formyl-4-hydroxybenzamide], for which the IC50 at AKT2 is 100 to 2000 nM; on AKT1 WT, 10 to 100 nM; at AKT1 E17K, 10 to 100 nM; in test [1], 100 to 2000 nM.
Take `Nc1ncccc1-c1nc2ccc(-n3cccn3)nc2n1-c1ccc2c(c1)CC[C@@H]2NC(=O)c1cc(C=O)c(O)c2nccn12` [Example 169, N-[(1S)-5-[2-(2-aminopyridin-3-yl)-5-(pyrazol-1-yl)imidazo[4,5-b]pyridin-3-yl]-2,3-dihydro-1H-inden-1-yl]-7-formyl-8-hydroxyimidazo[1,2-a]pyridine-5-carboxamide]: the IC50 on AKT2 is no less than 2000 nM; at AKT1 WT, no less than 2000 nM; at AKT1 E17K it was no less than 2000 nM; in test [1] it was 100 to 2000 nM.
`Cn1c(=O)[nH]c2c(C=O)cc(C(=O)N[C@H]3CCc4cc(-n5c(-c6cccnc6N)nc6ccc(-n7cccn7)nc65)ccc43)cc21` [Example 170, (S)—N-(5-(2-(2-aminopyridin-3-yl)-5-(1H-pyrazol-1-yl)-3H-imidazo[4,5-b]pyridin-3-yl)-2,3-dihydro-1H-inden-1-yl)-7-formyl-3-methyl-2-oxo-2,3-dihydro-1H-benzo[d]imidazole-5-carboxamide]: the IC50 at AKT2 was 100 to 2000 nM; at AKT1 WT, less than 10 nM; on AKT1 E17K it was less than 10 nM; in test [1], 10 to 100 nM.
`Nc1ncccc1-c1nc2ccc(-c3ccn(C4COC4)n3)nc2n1-c1ccc2c(c1)CC[C@@H]2NC(=O)c1ccc(O)c(C=O)c1` [Example 171, N-[(1S)-5-[2-(2-aminopyridin-3-yl)-5-[1-(oxetan-3-yl)pyrazol-3-yl]imidazo[4,5-b]pyridin-3-yl]-2,3-dihydro-1H-inden-1-yl]-3-formyl-4-hydroxybenzamide]: the IC50 lay within 100 to 2000 nM at AKT2, 10 to 100 nM at AKT1 WT, 10 to 100 nM on AKT1 E17K and 100 to 2000 nM in test [1].
As to `Nc1ncccc1-c1nc2ccc(-n3ncc4cccnc43)nc2n1-c1ccc2c(c1)CC[C@@H]2NC(=O)c1cc(C=O)c(O)c(F)c1F` [Example 172, (S)—N-(5-(2-(2-aminopyridin-3-yl)-5-(1H-pyrazolo[3,4-b]pyridin-1-yl)-3H-imidazo[4,5-b]pyridin-3-yl)-2,3-dihydro-1H-inden-1-yl)-2,3-difluoro-5-formyl-4-hydroxybenzamide], the IC50 on AKT2 was 100 to 2000 nM; at AKT1 WT, 10 to 100 nM; on AKT1 E17K it was 10 to 100 nM; in test [1] it was 10 to 100 nM.
Regarding `Cc1nc(-c2ccc3nc(-c4cccnc4N)n(-c4ccc5c(c4)CC[C@@H]5NC(=O)c4ccc(O)c(C=O)c4)c3n2)no1` [Example 173, N-[(1S)-5-[2-(2-aminopyridin-3-yl)-5-(5-methyl-1,2,4-oxadiazol-3-yl)imidazo[4,5-b]pyridin-3-yl]-2,3-dihydro-1H-inden-1-yl]-3-formyl-4-hydroxybenzamide], the IC50 at AKT2 is 100 to 2000 nM; on AKT1 WT, 10 to 100 nM; on AKT1 E17K, 10 to 100 nM; in test [1] it was 100 to 2000 nM.
For `Cc1cnc(-c2ccc3nc(-c4cccnc4N)n(-c4ccc5c(c4)CC[C@@H]5NC(=O)c4ccc(O)c(C=O)c4)c3n2)o1` [Example 174, N-[(1S)-5-[2-(2-aminopyridin-3-yl)-5-(5-methyl-1,3-oxazol-2-yl)imidazo[4,5-b]pyridin-3-yl]-2,3-dihydro-1H-inden-1-yl]-3-formyl-4-hydroxybenzamide], the IC50 at AKT2 lay in the range of 100 to 2000 nM; on AKT1 WT, 10 to 100 nM; at AKT1 E17K, 10 to 100 nM; in test [1] it was 100 to 2000 nM.
For the compound `CN(C)c1nc2cc(C(=O)N[C@H]3CCc4cc(-n5c(-c6cccnc6N)nc6ccc(-n7cccn7)nc65)ccc43)cc(C=O)c2[nH]1` [Example 175, (S)—N-(5-(2-(2-aminopyridin-3-yl)-5-(1H-pyrazol-1-yl)-3H-imidazo[4,5-b]pyridin-3-yl)-2,3-dihydro-1H-inden-1-yl)-2-(dimethylamino)-7-formyl-1H-benzo[d]imidazole-5-carboxamide], the IC50 at AKT2 is 10 to 100 nM; at AKT1 WT, less than 10 nM; on AKT1 E17K, less than 10 nM; in test [1], less than 10 nM.
With `Nc1ncccc1-c1nc2ccc(-c3ccccc3)nc2n1-c1ccc2c(c1)CC[C@@H]2NC(=O)c1cc(C=O)c(O)c(Cl)n1` [Example 176, (S)—N-(5-(2-(2-aminopyridin-3-yl)-5-phenyl-3H-imidazo[4,5-b]pyridin-3-yl)-2,3-dihydro-1H-inden-1-yl)-6-chloro-4-formyl-5-hydroxypicolinamide], the IC50 at AKT2 is 100 to 2000 nM; on AKT1 WT, 100 to 2000 nM; on AKT1 E17K, 10 to 100 nM; in test [1], 100 to 2000 nM.
Consider `Nc1ncccc1-c1nc2ccc(-n3cccn3)nc2n1-c1ccc2c(c1)CC[C@@H]2N1CCc2cc(O)c(C=O)cc2C1=O` [Example 177, 2-[(1S)-5-[2-(2-aminopyridin-3-yl)-5-(pyrazol-1-yl)imidazo[4,5-b]pyridin-3-yl]-2,3-dihydro-1H-inden-1-yl]-6-hydroxy-1-oxo-3,4-dihydroisoquinoline-7-carbaldehyde], for which the IC50 was 100 to 2000 nM on AKT2, no less than 2000 nM on AKT1 WT, no less than 2000 nM at AKT1 E17K and no less than 2000 nM in test [1].
